Among the test systems are 786-0; A498; CCRF-CEM; EKVX; HCC 2998; HCT-15; HL-60; HOP-62; HT-29; K562; MCF7; MDA-MB-435; MDA-N; NCI-H522; NCI/ADR-RES; RXF 393; SNB-75; T47D; TK-10; UO-31.
Common to all, as to assay: inhibition of tumour cell growth, NCI panel, 48 h

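Exposure lasted 48 hours, with cells grown in 96-well plates and compounds tested at five concentrations. Here, GI50 denotes the concentration required for 50% inhibition of growth.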 The source made the active and inactive calls. No stated cut-off is given here; in the data, active = GI50 up to about 1.1 µM and inactive = higher.

In the case of `COc1cc(/C=C\c2ccc(SC)cc2)cc(OC)c1OC`, the GI50 is 0.0221 µM (active) in the experiment with 786-0; 0.883 µM (active) in the experiment on A498; 0.0202 µM (active) with CCRF-CEM; 6.97 µM (inactive) in the experiment on EKVX; < 0.01 µM (active) in the experiment on HCC 2998; 0.0329 µM in the experiment with HCT-15. For the same molecule, the GI50 in the experiment with HL-60 was < 0.0123 µM (active); in the experiment on HOP-62, 0.0175 µM (active); in the experiment on HT-29 it was < 0.0137 µM (active); with K562, < 0.01 µM (active); in the experiment on MCF7, 0.201 µM (active); in the experiment with MDA-MB-435, < 0.01 µM (active). Besides, the GI50 with MDA-N is < 0.01 µM (active); in the experiment with NCI-H522 it was 0.0133 µM (active); in the experiment on NCI/ADR-RES, 0.0395 µM (active); with RXF 393, 0.0117 µM (active); in the experiment on SNB-75, < 0.01 µM (active); in the experiment on T47D, 19.7 µM (inactive). Besides, the values for the GI50 with TK-10 and in the experiment with UO-31 were 23.7 µM (inactive) and 0.104 µM (active), respectively.
Regarding `COc1cc(/C=C2\CCc3cc(OC)c(OC)cc3C2=O)cc(OC)c1`, the GI50 in the experiment with 786-0 was 4.66 µM (inactive); in the experiment with A498 it was 6.82 µM (inactive); in the experiment with CCRF-CEM, 4.08 µM (inactive); with EKVX it was 24.3 µM (inactive); in the experiment on HCC 2998 it was 5.3 µM (inactive); with HCT-15 it was 3.62 µM. For the same molecule, the GI50 with HL-60 was 3.51 µM (inactive); in the experiment with HOP-62, 7.94 µM (inactive); in the experiment with HT-29, 3.49 µM (inactive); in the experiment with K562, 3.03 µM (inactive); in the experiment on MCF7 it was 4.2 µM (inactive); with MDA-MB-435 it was 1.99 µM (inactive). For the same molecule, the GI50 with MDA-N was 1.45 µM (inactive); in the experiment with NCI-H522, 5.93 µM (inactive); in the experiment on NCI/ADR-RES, 3.15 µM (inactive); with RXF 393, 4.9 µM (inactive); in the experiment with SNB-75, 21.3 µM (inactive); in the experiment with T47D it was 5.9 µM (inactive). Further, the GI50 in the experiment on TK-10 is 24 µM (inactive); in the experiment on UO-31, 20.5 µM (inactive).
As for `Cc1nnc(N)nc1C/C=C/C(C)Sc1ccc(Cl)cc1` (stereo not given), the GI50 is 8.41 µM (inactive) in the experiment with 786-0; 6.32 µM (inactive) in the experiment with A498; 2.33 µM (inactive) with CCRF-CEM; 4.61 µM (inactive) in the experiment on EKVX; 14.4 µM (inactive) in the experiment with HCC 2998; 12.8 µM in the experiment with HCT-15. The GI50 was 3.89 µM (inactive) with HL-60; 6.47 µM (inactive) in the experiment on HOP-62; 16 µM (inactive) in the experiment on HT-29; 9.73 µM (inactive) in the experiment with K562; 5.28 µM (inactive) in the experiment on MCF7; 7.73 µM (inactive) in the experiment on MDA-MB-435. Besides, the GI50 in the experiment with MDA-N is 14.4 µM (inactive); in the experiment with NCI-H522 it was 4 µM (inactive); in the experiment on NCI/ADR-RES, 9.79 µM (inactive); in the experiment with RXF 393 it was 7.28 µM (inactive); with SNB-75, 6.01 µM (inactive); with T47D it was 8.07 µM (inactive). The GI50 is 15 µM (inactive) with TK-10 and 3.49 µM (inactive) in the experiment on UO-31.
On to `COc1cnc2cc(C(=O)O)c3ccccc3c2c1`, for which the GI50 in the experiment with 786-0 was > 100 µM (inactive); in the experiment with A498, > 100 µM (inactive); with CCRF-CEM it was > 100 µM (inactive); in the experiment on EKVX, > 100 µM (inactive); in the experiment with HCC 2998 it was > 100 µM (inactive); in the experiment on HCT-15 it was > 100 µM. Moreover, the GI50 in the experiment with HL-60, in the experiment with HOP-62, in the experiment with HT-29, in the experiment with K562, with MCF7 and in the experiment on MDA-MB-435 was > 100 µM (inactive) throughout. Further, the GI50 was > 100 µM (inactive) in the experiment on MDA-N; > 100 µM (inactive) in the experiment on NCI-H522; > 100 µM (inactive) in the experiment on NCI/ADR-RES; > 100 µM (inactive) with RXF 393; 58.3 µM (inactive) in the experiment with SNB-75; > 100 µM (inactive) in the experiment with T47D. The GI50 in the experiment with TK-10 and in the experiment on UO-31 was > 100 µM (inactive) throughout.
Consider `Nc1ccccc1OCCCOc1ccccc1N`, for which the GI50 is > 100 µM (inactive) in the experiment with 786-0; > 100 µM (inactive) in the experiment with A498; > 100 µM (inactive) in the experiment on CCRF-CEM; > 100 µM (inactive) in the experiment with EKVX; > 100 µM (inactive) in the experiment on HCC 2998; > 100 µM with HCT-15. In addition, the GI50 was > 100 µM (inactive) in the experiment on HL-60; > 100 µM (inactive) in the experiment on HOP-62; > 100 µM (inactive) in the experiment on HT-29; > 100 µM (inactive) in the experiment on K562; > 100 µM (inactive) with MCF7; 57.1 µM (inactive) in the experiment with MDA-MB-435. Further, the GI50 in the experiment on MDA-N is 51.8 µM (inactive); in the experiment with NCI-H522, > 100 µM (inactive); in the experiment with NCI/ADR-RES it was > 100 µM (inactive); in the experiment with RXF 393, > 100 µM (inactive); with SNB-75, > 100 µM (inactive); in the experiment on T47D, > 100 µM (inactive). For the same molecule, the GI50 in the experiment with TK-10 and with UO-31 was > 100 µM (inactive) each time.

(Values after ChEMBL document CHEMBL1201862, “PubChem BioAssay data set” (2004).)
